# Measured values reported in ChEMBL document CHEMBL4334464, “From Phenylthiazoles to Phenylpyrazoles: Broadening the Antibacterial Spectrum toward Carbapenem-Resistant Bacteria” (J Med Chem, 2019).
# Calls of active or inactive are those of the source. No cut-off for these calls is given here.
# What was measured:
# Escherichia coli [1] = assay: Antimicrobial activity against Escherichia coli JW55031 harboring deltatolC mutant after 18 to 20 hrs in aerobic condition by CLSI protocol based broth microdilution assay; type: functional
# Staphylococcus aureus [2] = assay: Antibacterial activity against Methicillin-sensitive Staphylococcus aureus NRS107 clinical isolates after 18 to 20 hrs in aerobic condition by CLSI protocol based broth microdilution assay; type: functional
# Staphylococcus aureus [3] = assay: Antibacterial activity against linezolid-resistant/Methicillin-resistant Staphylococcus aureus NRS119 clinical isolates after 18 to 20 hrs in aerobic condition by CLSI protocol based broth microdilution assay; type: functional
# Staphylococcus aureus [4] = assay: Antibacterial activity against Methicillin-resistant Staphylococcus aureus NRS123-USA400 clinical isolates after 18 to 20 hrs in aerobic condition by CLSI protocol based broth microdilution assay; type: functional
# Staphylococcus aureus [5] = assay: Antibacterial activity against Methicillin-resistant Staphylococcus aureus NRS385-USA500 clinical isolates after 18 to 20 hrs in aerobic condition by CLSI protocol based broth microdilution assay; type: functional
# Staphylococcus aureus [6] = assay: Antibacterial activity against vancomycin-resistant Staphylococcus aureus isolate 12 after 18 to 20 hrs in aerobic condition by CLSI-based broth microdilution assay; type: functional
# Staphylococcus aureus [7] = assay: Bactericidal activity against methicillin-resistant Staphylococcus aureus NRS123-USA400 clinical isolates at 5 times MIC incubated over 24 hrs followed by replating on tryptic soy agar plate and further incubated for 18 to 20 hrs by time kill assay; type: functional, organism-based
# [8] = system: Staphylococcus epidermidis; assay: Antibacterial activity against Staphylococcus epidermidis NRS101 after 18 to 20 hrs in aerobic condition by CLSI-based broth microdilution assay; type: functional
# Enterococcus faecium = assay: Antibacterial activity against vancomycin-resistant Enterococcus faecium ATCC 700221 clinical isolates after 18 to 20 hrs in aerobic condition by CLSI-based broth microdilution assay; type: functional
# Streptococcus pneumoniae = assay: Antibacterial activity against cephalosporin-resistant Streptococcus pneumoniae ATCC 51916 clinical isolates after 18 to 20 hrs by CLSI-based broth microdilution assay; type: functional
# Clostridioides difficile = assay: Antibacterial activity against Clostridium difficile ATCC BAA 1870 incubated for 48 hrs in anaerobic condition by CLSI-based broth microdilution assay; type: functional; conditions: ATCC BAA 1870, 48 h
# Acinetobacter baumannii [9] = assay: Antibacterial activity against Acinetobacter baumannii ATCC 19606 clinical isolates after 18 to 20 hrs in aerobic condition by CLSI-based broth microdilution assay; type: functional; conditions: ATCC 19606 = CIP 70.34 = JCM 6841
# Acinetobacter baumannii [10] = assay: Antibacterial activity against Acinetobacter baumannii ATCC BAA 1141 clinical isolates after 18 to 20 hrs in aerobic condition by CLSI-based broth microdilution assay; type: functional
# Escherichia coli [11] = assay: Antibacterial activity against Escherichia coli ATCC 25922 clinical isolates after 18 to 20 hrs in aerobic condition by CLSI-based broth microdilution assay; type: functional
# Escherichia coli [12] = assay: Antibacterial activity against Escherichia coli ATCC 35150 clinical isolates after 18 to 20 hrs in aerobic condition by CLSI-based broth microdilution assay; type: functional
# [13] = Antibacterial activity against Enterobacter cloacae subsp. cloacae ATCC BAA-1143 clinical isolates after 18 to 20 hrs in aerobic condition by CLSI-based broth microdilution assay; type: functional
# Klebsiella pneumoniae [14] = assay: Antibacterial activity against Klebsiella pneumoniae BAA-1706 clinical isolates after 18 to 20 hrs in aerobic condition by CLSI-based broth microdilution assay; type: functional
# Salmonella enterica [15] = assay: Antibacterial activity against Salmonella enterica NR-170 clinical isolates after 18 to 20 hrs in aerobic condition by CLSI-based broth microdilution assay; type: functional
# Salmonella enteritidis [16] = assay: Antibacterial activity against Salmonella enteritidis ATCC 13076 clinical isolates after 18 to 20 hrs in aerobic condition by CLSI-based broth microdilution assay; type: functional, Salmonella enterica subsp. enterica serovar Enteritidis; conditions: Salmonella enterica
# Salmonella enteritidis [17] = assay: Antibacterial activity against Salmonella enteritidis ATCC 14028 clinical isolates after 18 to 20 hrs in aerobic condition by CLSI-based broth microdilution assay; type: functional, Salmonella enterica subsp. enterica serovar Enteritidis; conditions: Salmonella enterica
# Escherichia coli [18] = assay: Antibacterial activity against carbapenem-resistant Escherichia coli BAA-2469 clinical isolates after 18 to 20 hrs in aerobic condition by CLSI-based broth microdilution assay; type: functional
# Klebsiella pneumoniae [19] = assay: Antibacterial activity against carbapenem-resistant Klebsiella pneumoniae ATCC BAA-2146 clinical isolates after 18 to 20 hrs in aerobic condition by CLSI-based broth microdilution assay; type: functional
# Acinetobacter baumannii [20] = assay: Antibacterial activity against carbapenem-resistant Acinetobacter baumannii ATCC BAA 1605 clinical isolates after 18 to 20 hrs in aerobic condition by CLSI-based broth microdilution assay; type: functional
# Pseudomonas aeruginosa [21] = assay: Antibacterial activity against carbapenem-resistant Pseudomonas aeruginosa ATCC 1744 clinical isolates after 18 to 20 hrs in aerobic condition by CLSI-based broth microdilution assay; type: functional
# Escherichia coli [22] = assay: Inhibition of 6His tagged Escherichia coli UPPP expressed in Escherichia coli C41(DE3) cells preincubated for 15 mins followed by FPP substrate addition and measured after 20 mins by malachite green reagent based assay
# Staphylococcus aureus [23] = assay: Ratio of MBC to MIC for Methicillin-sensitive Staphylococcus aureus ATCC 6538 clinical isolates; type: functional
# Listeria monocytogenes = assay: Ratio of MBC to MIC for Listeria monocytogenes ATCC 19111 clinical isolates; type: functional
# Acinetobacter baumannii [24] = assay: Ratio of MBC to MIC for Acinetobacter baumannii ATCC 19606 clinical isolates; type: functional, ATCC 19606 = CIP 70.34 = JCM 6841
# Acinetobacter baumannii [25] = assay: Ratio of MBC to MIC for Acinetobacter baumannii ATCC BAA 1747 clinical isolates; type: functional
# Acinetobacter baumannii [26] = assay: Ratio of MBC to MIC for Acinetobacter baumannii NR 17785 clinical isolates; type: functional
# Acinetobacter baumannii [27] = assay: Ratio of MBC to MIC for Acinetobacter baumannii NR 17786 clinical isolates; type: functional
# Escherichia coli [28] = assay: Ratio of MBC to MIC for Escherichia coli ATCC 35150 clinical isolates; type: functional
# Escherichia coli [29] = assay: Ratio of MBC to MIC for Escherichia coli ATCC 1411 clinical isolates; type: functional
# Klebsiella pneumoniae [30] = assay: Ratio of MBC to MIC for Klebsiella pneumoniae BAA-1706 after 18 to 20 hrs in aerobic condition by CLSI-based broth microdilution assay; type: functional
# Salmonella enterica [31] = assay: Ratio of MBC to MIC for Salmonella enterica NR-170 clinical isolates; type: functional
# Salmonella typhimurium = assay: Ratio of MBC to MIC for Salmonella typhimurium ATCC 700720 clinical isolates; type: functional, Salmonella enterica subsp. enterica serovar Typhimurium
# Shigella flexneri = assay: Ratio of MBC to MIC for Shigella flexneri ATCC 9199 clinical isolates; type: functional
# Pseudomonas aeruginosa [32] = assay: Ratio of MBC to MIC for Pseudomonas aeruginosa ATCC 9027 clinical isolates; type: functional
# Pseudomonas aeruginosa [33] = assay: Ratio of MBC to MIC for Pseudomonas aeruginosa ATCC 25619 clinical isolates; type: functional
# Pseudomonas aeruginosa [34] = assay: Ratio of MBC to MIC for Pseudomonas aeruginosa ATCC 15442 clinical isolates; type: functional
# Escherichia coli [35] = assay: microbe, parasite or virus in culture; conditions: ATCC 1411
# Description: Antibacterial activity against Escherichia coli ATCC 1411 clinical isolates after 18 to 20 hrs in aerobic condition by CLSI-based broth microdilution assay
# Pseudomonas aeruginosa [36] = assay: microbe, parasite or virus in culture; conditions: ATCC 9027
# Description: Antibacterial activity against Pseudomonas aeruginosa ATCC 9027 clinical isolates after 18 to 20 hrs in aerobic condition by CLSI-based broth microdilution assay
# Pseudomonas aeruginosa [37] = assay: microbe, parasite or virus in culture; conditions: ATCC 25619
# Description: Antibacterial activity against Pseudomonas aeruginosa ATCC 25619 clinical isolates after 18 to 20 hrs in aerobic condition by CLSI-based broth microdilution assay
compound,measurement,setting,value
C/C(=N\NC(=N)N)c1cnn(-c2ccc(C#CC3CCCC3)cc2)c1C,MIC,Escherichia coli [1],2 µg/mL
same,MIC,Staphylococcus aureus [2],1 µg/mL
same,MIC,Staphylococcus aureus [3],1 µg/mL
same,MIC,Staphylococcus aureus [4],2 µg/mL
same,MIC,Staphylococcus aureus [5],0.5 µg/mL
same,MIC,Staphylococcus aureus [6],1 µg/mL
same,Activity,Staphylococcus aureus [7],Active
same,MIC,[8],1 µg/mL
same,MIC,Enterococcus faecium,1 µg/mL
same,MIC,Streptococcus pneumoniae,1 µg/mL
same,MIC,Clostridioides difficile,1 µg/mL
same,MIC,Acinetobacter baumannii [9],4 µg/mL
same,MIC,Acinetobacter baumannii [10],4 µg/mL
same,MIC,Escherichia coli [11],4 µg/mL
same,MIC,Escherichia coli [12],4 µg/mL
same,MIC,[13],8 µg/mL
same,MIC,Klebsiella pneumoniae [14],4 µg/mL
same,MIC,Salmonella enterica [15],8 µg/mL
same,MIC,Salmonella enteritidis [16],4 µg/mL
same,MIC,Salmonella enteritidis [17],8 µg/mL
same,MIC,Escherichia coli [18],4 µg/mL
same,MIC,Klebsiella pneumoniae [19],16 µg/mL
same,MIC,Acinetobacter baumannii [20],8 µg/mL
same,MIC,Pseudomonas aeruginosa [21],16 µg/mL
same,inhibition,Escherichia coli [22],inactive
same,Ratio,Staphylococcus aureus [23],<=2
same,Ratio,Listeria monocytogenes,<3
same,Ratio,Acinetobacter baumannii [24],>=1
same,Ratio,Acinetobacter baumannii [25],>=1
same,Ratio,Acinetobacter baumannii [26],>=1
same,Ratio,Acinetobacter baumannii [27],>=1
same,Ratio,Escherichia coli [28],>=1
same,Ratio,Escherichia coli [29],>=1
same,Ratio,Klebsiella pneumoniae [30],>=1
same,Ratio,Salmonella enterica [31],>=1
same,Ratio,Salmonella typhimurium,>=1
same,Ratio,Shigella flexneri,>=1
same,Ratio,Pseudomonas aeruginosa [32],>=1
same,Ratio,Pseudomonas aeruginosa [33],>=1
same,Ratio,Pseudomonas aeruginosa [34],>=1
same,MIC,Escherichia coli [35],8 µg/mL
same,MIC,Pseudomonas aeruginosa [36],16 µg/mL
same,MIC,Pseudomonas aeruginosa [37],16 µg/mL
C/C(=N\NC(=N)N)c1cnn(-c2ccc(C#CC3CCCCC3)cc2)c1C,MIC,Escherichia coli [1],2 µg/mL
same,MIC,Staphylococcus aureus [2],2 µg/mL
same,MIC,Staphylococcus aureus [3],2 µg/mL
same,MIC,Staphylococcus aureus [4],2 µg/mL
same,MIC,Staphylococcus aureus [5],2 µg/mL
same,MIC,Staphylococcus aureus [6],2 µg/mL
same,Activity,Staphylococcus aureus [7],Active
same,MIC,[8],2 µg/mL
same,MIC,Enterococcus faecium,1 µg/mL
same,MIC,Streptococcus pneumoniae,2 µg/mL
same,MIC,Clostridioides difficile,4 µg/mL
same,MIC,Acinetobacter baumannii [9],4 µg/mL
same,MIC,Acinetobacter baumannii [10],4 µg/mL
same,MIC,Escherichia coli [11],4 µg/mL
same,MIC,Escherichia coli [12],4 µg/mL
same,MIC,[13],8 µg/mL
same,MIC,Klebsiella pneumoniae [14],8 µg/mL
same,MIC,Salmonella enterica [15],8 µg/mL
same,MIC,Salmonella enteritidis [16],16 µg/mL
same,MIC,Salmonella enteritidis [17],32 µg/mL
same,MIC,Escherichia coli [18],4 µg/mL
same,MIC,Klebsiella pneumoniae [19],8 µg/mL
same,MIC,Acinetobacter baumannii [20],4 µg/mL
same,MIC,Pseudomonas aeruginosa [21],32 µg/mL
same,inhibition,Escherichia coli [22],inactive
same,Ratio,Staphylococcus aureus [23],<=2
same,Ratio,Listeria monocytogenes,<3
same,Ratio,Acinetobacter baumannii [24],>=1
same,Ratio,Acinetobacter baumannii [25],>=1
same,Ratio,Acinetobacter baumannii [26],>=1
same,Ratio,Acinetobacter baumannii [27],>=1
same,Ratio,Escherichia coli [28],>=1
same,Ratio,Escherichia coli [29],>=1
same,Ratio,Klebsiella pneumoniae [30],>=1
same,Ratio,Salmonella enterica [31],>=1
same,Ratio,Salmonella typhimurium,>=1
same,Ratio,Shigella flexneri,>=1
same,Ratio,Pseudomonas aeruginosa [32],>=1
same,Ratio,Pseudomonas aeruginosa [33],>=1
same,Ratio,Pseudomonas aeruginosa [34],>=1
same,MIC,Escherichia coli [35],8 µg/mL
same,MIC,Pseudomonas aeruginosa [36],16 µg/mL
same,MIC,Pseudomonas aeruginosa [37],64 µg/mL
